Where a name gives a salt, the structure may show the parent alone.
The compounds below were run against T1, HCV NS3 protease (full length NS34a) (Hepatitis C virus genotype 1b, UniProt P26663) (assay: HCV NS3 protease assay (FRET, full length NS34a)). Details: IC50 values of 10-150 μM against the protease activity of the full length NS34a, or at least 40% inhibition of protease activity at a concentration of 100 μM.
T1 construct: The protease activity of the full length NS34a was measured using a FRET-based assay; made in house
T1 sequence (P26663 1658-1711): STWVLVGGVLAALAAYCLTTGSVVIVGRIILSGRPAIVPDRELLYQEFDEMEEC
T1 sequence (P26663 1027-1657): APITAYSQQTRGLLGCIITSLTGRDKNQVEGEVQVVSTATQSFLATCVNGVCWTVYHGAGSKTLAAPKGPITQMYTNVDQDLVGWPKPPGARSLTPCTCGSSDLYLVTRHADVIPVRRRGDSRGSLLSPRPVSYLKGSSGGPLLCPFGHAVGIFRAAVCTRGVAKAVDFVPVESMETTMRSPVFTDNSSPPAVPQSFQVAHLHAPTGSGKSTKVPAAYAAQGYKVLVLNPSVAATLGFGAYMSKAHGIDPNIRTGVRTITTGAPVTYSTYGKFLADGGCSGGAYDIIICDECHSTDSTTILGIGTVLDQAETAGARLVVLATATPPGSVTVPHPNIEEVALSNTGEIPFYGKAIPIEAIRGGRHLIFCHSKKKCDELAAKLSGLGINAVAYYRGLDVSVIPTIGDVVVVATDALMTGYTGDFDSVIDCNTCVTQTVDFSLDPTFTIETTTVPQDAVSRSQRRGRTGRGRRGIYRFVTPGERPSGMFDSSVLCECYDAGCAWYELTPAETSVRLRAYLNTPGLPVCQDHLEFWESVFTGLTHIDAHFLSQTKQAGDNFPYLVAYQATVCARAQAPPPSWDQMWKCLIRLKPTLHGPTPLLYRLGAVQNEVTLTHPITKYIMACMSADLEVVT
Format: biochemical
Protocol: The HCV NS3 protease functions have been extensively studied and are considered as potential targets for antiviral therapy: see for example the many references listed in the introductory section of this application. Therefore, the activity of the compounds of the invention as anti-HCV agents was assessed using a full length HCV NS3 protease.
The protease activity of the full length NS34a was measured using a FRET-based assay utilizing a peptide substrate derived from the NS4AB cleavage site (Anaspec) and labelled at one end with a quencher (QXL520) and at the other with a fluorophore (5-FAMsp). NS34a (produced in-house by literature methods) was incubated with test compounds and peptide substrate in 50 mM Tris pH8, 20 mM DTT, 1% CHAPS, 10% glycerol and 5% DMSO. The reaction was followed by monitoring the change in fluorescence on a Molecular Devices Gemini plate reader for 30 minutes at room temperature. Initial rates were calculated from the progress curves using SoftMax Pro (Molecular Devices). IC50 values were then calculated from replicate curves using Prism GraphPad software.
Work on `CC[C@@H](N[C@@H](C)CC(=O)NCC(=O)OC)c1ccc(Cl)c(Oc2ccccc2)c1F` [Example 159] yielded an IC50 of 10 to 150 µM.
`CC[C@@H](N[C@H](C)CC(=O)N(C)OC)c1ccc(Cl)c(Oc2ccccc2)c1F` [Example 160] gave an IC50 of 10 to 150 µM.
`CC[C@@H](N[C@@H](C)CC(=O)N(C)OC)c1ccc(Cl)c(Oc2ccccc2)c1F` [Example 161] showed an IC50 of 10 to 150 µM.
`CC[C@@H](N)c1ccc(Cl)c(Oc2ccc(C(F)(F)F)cc2)c1F` [Example 175] was tested, and the IC50 was 10 to 150 µM.
In the case of `CC[C@@H](N[C@H](C)CC(=O)NCC(N)=O)c1ccc(Cl)c(Oc2ccccc2)c1F` [Example 177], the IC50 is reported as 10 to 150 µM.
`CC[C@@H](N)c1ccc(Cl)c(Oc2cccc(C(=O)NCCC#N)c2)c1F` [Example 191] was tested, and the IC50 was 10 to 150 µM.
For `CC[C@@H](N[C@H](C)CC(=O)N[C@@H](C)CO)c1ccc(Cl)c(Oc2ccccc2)c1F` [Example 205], the IC50 was 10 to 150 µM.
In the case of `CC[C@@H](N[C@@H](C)CC(=O)N[C@@H](C)CO)c1ccc(Cl)c(Oc2ccccc2)c1F` [Example 206], the IC50 is reported as 10 to 150 µM.
`CC[C@@H](N[C@H](C)CC(N)=O)c1ccc(Cl)c(Oc2ccc(C#N)c(F)c2)c1F` [Example 214] showed an IC50 of 10 to 150 µM.
`CC[C@@H](N[C@H](C)CC(N)=O)c1ccc(Cl)c(Oc2cccc(CNS(C)(=O)=O)c2)c1F` [Example 217] gave an IC50 of 10 to 150 µM.
For `CC[C@@H](N)c1ccc(Cl)c(Oc2ccc(CO)nc2)c1F` [Example 231], the IC50 was 10 to 150 µM.
Compound `CC[C@@H](N[C@H](C)CC(N)=O)c1ccc(Cl)c(Oc2ccc(C#N)nc2)c1F` [Example 247] has an IC50 of 10 to 150 µM.
`CC[C@@H](N[C@H](C)CC(N)=O)c1ccc(Cl)c(Oc2ccc(C(N)=O)nc2)c1F` [Example 248, 5-{3-[(R)-1-((R)-2-Carbamoyl-1-methyl-ethylamino)-propyl]-6-chloro-2-fluoro-phenoxy}-pyridine-2-carboxylic acid amide.hydrochloride] gave an IC50 of 10 to 150 µM.
For `CC[C@@H](N[C@H](C)CC(N)=O)c1ccc(Cl)c(Oc2ccc(N)c(OC)c2)c1F` [Example 254], the IC50 was 10 to 150 µM.
`C[C@H](CC(N)=O)N[C@H](CC1CCOCC1)c1ccc(Cl)c(Oc2ccccc2)c1F` [Example 257] was tested, and the IC50 was 10 to 150 µM.
In the case of `C[C@H](CC(N)=O)N[C@@H](CC1CCOCC1)c1ccc(Cl)c(Oc2ccccc2)c1F` [Example 258], the IC50 is reported as 10 to 150 µM.
For `CC[C@@H](N[C@H](C)CC(N)=O)c1ccc(Cl)c(Oc2ccc(N)c(C(F)(F)F)c2)c1F` [Example 259], the IC50 was 10 to 150 µM.
In the case of `CC[C@@H](N[C@H](C)CC(=O)NC[C@@H](C)O)c1ccc(Cl)c(Oc2ccccc2)c1F` [Example 268], the IC50 is reported as 10 to 150 µM.
With `CC[C@@H](N[C@H](C)CC(=O)NC(C)(C)CO)c1ccc(Cl)c(Oc2ccccc2)c1F` [Example 269] the IC50 was 10 to 150 µM.
`N[C@H](CC1CCOCC1)c1ccc(Cl)c(Oc2ccccc2)c1F` [Example 276A, (R)-1-(4-Chloro-2-fluoro-3-phenoxy-phenyl)-2-(tetrahydro-pyran-4-yl)-ethylamine. hydrochloride] showed an IC50 of 10 to 150 µM.
`N[C@@H](CC1CCOCC1)c1ccc(Cl)c(Oc2ccccc2)c1F` [Example 276B, (S)-1-(4-Chloro-2-fluoro-3-phenoxy-phenyl)-2-(tetrahydro-pyran-4-yl)-ethylamine.hydrochloride] showed an IC50 of 10 to 150 µM.

Same assay, conditions: protease activity of full length NS34a, FRET peptide substrate; read-out: Activity IC50
`CC[C@@H](N)c1ccc(Cl)c(Oc2cccc(C(F)(F)F)c2)c1F` [Example 162] was tested, and the IC50 was 6.8 µM.
In the case of `CC[C@@H](N)c1ccc(Cl)c(Oc2ccc(C#N)c(F)c2)c1F` [Example 166], the IC50 is reported as 2.1 µM.
Work on `CC[C@@H](N)c1ccc(Cl)c(Oc2ccnc(Cl)c2)c1F` [Example 167] yielded an IC50 of 6.1 µM.
Work on `CC[C@@H](N)c1ccc(Cl)c(Oc2ccnc(C)c2)c1F` [Example 168] yielded an IC50 of 3.7 µM.
`CC[C@@H](N)c1ccc(Cl)c(Oc2ccncc2)c1F` [Example 169] showed an IC50 of 4.8 µM.
For `CC[C@@H](N)c1ccc(Cl)c(Oc2cccc(S(C)(=O)=O)c2)c1F` [Example 170], the IC50 was 2.3 µM.
`CC[C@@H](N)c1ccc(Cl)c(Oc2cccc(NC(=O)NCC(F)(F)F)c2)c1F` [Example 171, 1-{3-[3-((R)-1-Amino-propyl)-6-chloro-2-fluoro-phenoxy]-phenyl}-3-(2,2,2-trifluoro-ethyl)-urea.hydrochloride] gave an IC50 of 7.7 µM.
`CC[C@@H](N)c1ccc(Cl)c(Oc2cccc(C(N)=O)c2)c1F` [Example 172] gave an IC50 of 3.7 µM.
For `CC[C@@H](N)c1ccc(Cl)c(Oc2cccc(CNC(C)=O)c2)c1F` [Example 173], the IC50 was 3.5 µM.
Compound `CC[C@@H](N)c1ccc(Cl)c(Oc2ccc(S(C)(=O)=O)cc2)c1F` [Example 174] has an IC50 of 6.2 µM.
For `CC[C@@H](N)c1ccc(Cl)c(Oc2ccc(Cl)cc2)c1F` [Example 176], the IC50 was 1.7 µM.
With `CC[C@@H](N)c1ccc(Cl)c(Oc2ccc(CC#N)cc2)c1F` [Example 179] the IC50 was 0.61 µM.
With `CC[C@@H](N)c1ccc(Cl)c(Oc2ccc(C)nc2)c1F` [Example 180] the IC50 was 3.7 µM.
With `CC[C@@H](N)c1ccc(Cl)c(Oc2ccc(-c3nnc(C)o3)cc2)c1F` [Example 181] the IC50 was 2.3 µM.
In the case of `CC[C@@H](N)c1ccc(Cl)c(Oc2ccc(N(C)C)cc2)c1F` [Example 182], the IC50 is reported as 5.7 µM.
`CC[C@@H](N)c1ccc(Cl)c(Oc2ccc(CO)cc2)c1F` [Example 183] showed an IC50 of 1.2 µM.
In the case of `CC[C@@H](N)c1ccc(Cl)c(Oc2ccc(C(C)OC)cc2)c1F` (stereo partly drawn) [Example 184], the IC50 is reported as 6.1 µM.
With `CC[C@@H](N[C@H](C)CC(N)=O)c1ccc(Cl)c(Oc2ccc(C#N)cc2)c1F` [Example 185] the IC50 was 1.5 µM.
`CCc1ccc(Oc2c(Cl)ccc([C@H](N)CC)c2F)cc1` [Example 187] showed an IC50 of 6.9 µM.
`CC[C@@H](N)c1ccc(Cl)c(Oc2ccc(C(C)O)cc2)c1F` (stereo partly drawn) [Example 188] was tested, and the IC50 was 2.7 µM.
With `CC[C@@H](N)c1ccc(Cl)c(Oc2ccc(S(=O)(=O)NC)cc2)c1F` [Example 189] the IC50 was 8.6 µM.
Work on `CC[C@@H](N)c1ccc(Cl)c(Oc2ccc(F)c(COC(=O)NCC3CC3)c2)c1F` [Example 190, Cyclopropylmethyl-carbamic acid 5-[3-((R)-1-amino-propyl)-6-chloro-2-fluoro-phenoxy]-2-fluoro-benzyl ester.hydrochloride] yielded an IC50 of 1.8 µM.
Work on `CC[C@@H](N)c1ccc(Cl)c(Oc2ccc(C3(C#N)CC3)cc2)c1F` [Example 192] yielded an IC50 of 3.1 µM.
In the case of `CC[C@@H](N)c1ccc(Cl)c(Oc2ccc3c(c2)CCO3)c1F` [Example 193], the IC50 is reported as 0.96 µM.
`CC[C@@H](N)c1ccc(Cl)c(Oc2ccc(C3(CO)CC3)cc2)c1F` [Example 194] was tested, and the IC50 was 3.1 µM.
Work on `CC[C@@H](N)c1ccc(Cl)c(Oc2ccc([N+](=O)[O-])cc2)c1F` [Example 197] yielded an IC50 of 2.6 µM.
In the case of `CC[C@@H](N)c1ccc(Cl)c(Oc2ccc(CNC(C)=O)cc2)c1F` [Example 198], the IC50 is reported as 1.6 µM.
Compound `CC[C@@H](N)c1ccc(Cl)c(Oc2cccc(C#N)c2)c1F` [Example 199] has an IC50 of 3.8 µM.
Compound `CC[C@@H](N[C@H](C)CC(N)=O)c1ccc(Cl)c(Oc2ccc([N+](=O)[O-])cc2)c1F` [Example 202] has an IC50 of 5.4 µM.
Work on `CC[C@@H](N)c1ccc(Cl)c(Oc2ccc(-c3cnco3)cc2)c1F` [Example 203, (R)-1-[4-Chloro-2-fluoro-3-(4-oxazol-5-yl-phenoxy)-phenyl]-propylamine.hydrochloride] yielded an IC50 of 1.6 µM.
Compound `CC[C@@H](N)c1ccc(Cl)c(Oc2ccc(/C=N/O)cc2)c1F` [Example 204, 4-[3-((R)-1-Amino-propyl)-6-chloro-2-fluoro-phenoxy]-benzaldehyde oxime.hydrochloride] has an IC50 of 0.72 µM.
`CC[C@@H](N[C@H](C)CC(=O)N[C@H](C)CO)c1ccc(Cl)c(Oc2ccccc2)c1F` [Example 208] gave an IC50 of 3.4 µM.
With `CC[C@@H](N[C@H](C)CC(N)=O)c1ccc(Cl)c(Oc2ccc(C#N)c(OC)c2)c1F` [Example 209] the IC50 was 4.9 µM.
In the case of `CC[C@@H](N)c1ccc(Cl)c(Oc2cc[nH]c(=O)c2)c1F` [Example 218, 4-[3-((R)-1-Amino-propyl)-6-chloro-2-fluoro-phenoxy]-1H-pyridin-2-one. hydrochloride], the IC50 is reported as 8.2 µM.
`CC[C@@H](N[C@H](C)CC(N)=O)c1ccc(Cl)c(Oc2ccc(-c3cnco3)cc2)c1F` [Example 220] showed an IC50 of 4.6 µM.
`CC[C@@H](N)c1ccc(Cl)c(Oc2ccc(F)c(C(N)=O)c2)c1F` [Example 227, 5-[3-((R)-1-Amino-propyl)-6-chloro-2-fluoro-phenoxy]-2-fluoro-benzamide (R isomer).hydrochloride] gave an IC50 of 2.2 µM.
In the case of `CC[C@@H](N)c1ccc(Cl)c(Oc2ccc(-c3cnco3)c(C)c2)c1F` [Example 228], the IC50 is reported as 1.6 µM.
`C#Cc1ccc(Oc2c(Cl)ccc([C@@H](CC)N[C@H](C)CC(N)=O)c2F)cc1` [Example 229] gave an IC50 of 1.7 µM.
`CC[C@@H](N[C@H](C)CC(N)=O)c1ccc(Cl)c(Oc2ccc3c(c2)OCC3)c1F` [Example 232] gave an IC50 of 1.8 µM.
Work on `CC[C@H](N)c1ccc(Cl)c(Oc2ccccc2)c1Cl` [Example 261, (S)-1-(2,4-Dichloro-3-phenoxy-phenyl)-propylamine.hydrochloride] yielded an IC50 of 1.2 µM.
Work on `CC[C@@H](N)c1ccc(Cl)c(Oc2ccccc2)c1Cl` [Example 262] yielded an IC50 of 5.9 µM.
With `CC[C@@H](N)c1ccc(Cl)c(Oc2ccc3c(c2)C(C)(C)CN3)c1F` [Example 270] the IC50 was 1.6 µM.
Compound `C[C@H](CC(=O)NCCN)N[C@H](CC1CCOCC1)c1ccc(Cl)c(Oc2ccccc2)c1F` [Example 278] has an IC50 of 3.9 µM.
`CS(=O)(=O)Nc1cccc(Oc2c(F)ccc(CN[C@H]3CC[C@@H](N)CC3)c2F)c1` [Example 285] was tested, and the IC50 was 2.4 µM.
`CS(=O)(=O)Nc1cccc(Oc2c(F)ccc(CNc3ccnc(N)c3)c2F)c1` [Example 286] gave an IC50 of 3 µM.
